Source: ChEMBL document CHEMBL3044826, “Design, synthesis and biological evaluation of some novel substituted 2-mercapto-3-phenethylquinazolines as antitumor agents” (2013)

Key:
Format in all cases: functional
[1] = test system: HT-29; assay: Cytotoxicity against Homo sapiens (human) HT-29 cells assessed as growth inhibition at 10 uM after 48 hr by coulter counter analysis; conditions: HT-29, 48 h, read-out: GI
[2] = test system: SN12C; assay: Cytotoxicity against Homo sapiens (human) SN12C cells assessed as growth inhibition at 10 uM after 48 hr by coulter counter analysis; conditions: read-out: GI
[3] = test system: TK-10; assay: Cytotoxicity against Homo sapiens (human) TK10 cells assessed as growth inhibition at 10 uM after 48 hr by coulter counter analysis; conditions: TK-10, 48 h, read-out: GI
[4] = test system: SK-MEL-5; assay: Cytotoxicity against Homo sapiens (human) SK-MEL-5 cells assessed as growth inhibition at 10 uM after 48 hr by coulter counter analysis; conditions: SK-MEL-5, 48 h, read-out: GI
[5] = test system: MDA-MB-468; assay: Cytotoxicity against Homo sapiens (human) MDA-MB-468 cells assessed as growth inhibition at 10 uM after 48 hr by coulter counter analysis; conditions: MDA-MB-468, 48 h, read-out: GI
[6] = test system: DU-145; assay: Cytotoxicity against Homo sapiens (human) DU145 cells assessed as growth inhibition at 10 uM after 48 hr by coulter counter analysis; conditions: DU-145, 48 h, read-out: GI
[7] = test system: BT-549; assay: Cytotoxicity against Homo sapiens (human) BT549 cells assessed as growth inhibition at 10 uM after 48 hr by coulter counter analysis; conditions: BT-549, 48 h, read-out: GI
[8] = test system: A498; assay: Cytotoxicity against Homo sapiens (human) A498 cells assessed as growth inhibition at 10 uM after 48 hr by coulter counter analysis; conditions: A498, 48 h, read-out: GI
[9] = test system: A549; assay: Cytotoxicity against Homo sapiens (human) A549 cells assessed as growth inhibition at 10 uM after 48 hr by coulter counter analysis; conditions: A549, 48 h, read-out: GI
[10] = test system: SNB-75; assay: Cytotoxicity against Homo sapiens (human) SNB75 cells assessed as growth inhibition at 10 uM after 48 hr by coulter counter analysis; conditions: SNB-75, 48 h, read-out: GI
[11] = test system: SF-539; assay: Cytotoxicity against Homo sapiens (human) SF539 cells assessed as growth inhibition at 10 uM after 48 hr by coulter counter analysis; conditions: SF-539, 48 h, read-out: GI
[12] = test system: M14; assay: Cytotoxicity against Homo sapiens (human) M14 cells assessed as growth inhibition at 10 uM after 48 hr by coulter counter analysis; conditions: M14, 48 h, read-out: GI
[13] = test system: OVCAR-8; assay: Cytotoxicity against Homo sapiens (human) OVCAR8 cells assessed as growth inhibition at 10 uM after 48 hr by coulter counter analysis; conditions: OVCAR-8, 48 h, read-out: GI
[14] = test system: OVCAR-4; assay: Cytotoxicity against Homo sapiens (human) OVCAR4 cells assessed as growth inhibition at 10 uM after 48 hr by coulter counter analysis; conditions: OVCAR-4, 48 h, read-out: GI
[15] = test system: SK-OV-3; assay: Cytotoxicity against Homo sapiens (human) SKOV3 cells assessed as growth inhibition at 10 uM after 48 hr by coulter counter analysis; conditions: SK-OV-3, 48 h, read-out: GI
[16] = test system: SF-268; assay: Cytotoxicity against Homo sapiens (human) SF268 cells assessed as growth inhibition at 10 uM after 48 hr by coulter counter analysis; conditions: SF-268, 48 h, read-out: GI
[17] = test system: HCC 2998; assay: Cytotoxicity against Homo sapiens (human) HCC2998 cells assessed as growth inhibition at 10 uM after 48 hr by coulter counter analysis; conditions: HCC 2998, 48 h, read-out: GI
[18] = test system: Malme-3M; assay: Cytotoxicity against Homo sapiens (human) MALME-3M cells assessed as growth inhibition at 10 uM after 48 hr by coulter counter analysis; conditions: read-out: GI
[19] = test system: SF-295; assay: Cytotoxicity against Homo sapiens (human) SF295 cells assessed as growth inhibition at 10 uM after 48 hr by coulter counter analysis; conditions: SF-295, 48 h, read-out: GI
[20] = test system: CAKI-1; assay: Cytotoxicity against Homo sapiens (human) Caki1 cells assessed as growth inhibition at 10 uM after 48 hr by coulter counter analysis; conditions: CAKI-1, 48 h, read-out: GI
[21] = test system: UACC-62; assay: Cytotoxicity against Homo sapiens (human) UACC62 cells assessed as growth inhibition at 10 uM after 48 hr by coulter counter analysis; conditions: UACC-62, 48 h, read-out: GI
[22] = test system: UO-31; assay: Cytotoxicity against Homo sapiens (human) UO31 cells assessed as growth inhibition at 10 uM after 48 hr by coulter counter analysis; conditions: UO-31, 48 h, read-out: GI
[23] = test system: OVCAR-3; assay: Cytotoxicity against Homo sapiens (human) OVCAR3 cells assessed as growth inhibition at 10 uM after 48 hr by coulter counter analysis; conditions: OVCAR-3, 48 h, read-out: GI
[24] = test system: SW-620; assay: Cytotoxicity against Homo sapiens (human) SW620 cells assessed as growth inhibition at 10 uM after 48 hr by coulter counter analysis; conditions: SW-620, 48 h, read-out: GI
[25] = test system: PC-3; assay: Cytotoxicity against Homo sapiens (human) PC3 cells assessed as growth inhibition at 10 uM after 48 hr by coulter counter analysis; conditions: PC-3, 48 h, read-out: GI
[26] = test system: HCT-116; assay: Cytotoxicity against Homo sapiens (human) HCT116 cells assessed as growth inhibition at 10 uM after 48 hr by coulter counter analysis; conditions: HCT-116, 48 h, read-out: GI
[27] = test system: KM12; assay: Cytotoxicity against Homo sapiens (human) KM12 cells assessed as growth inhibition at 10 uM after 48 hr by coulter counter analysis; conditions: KM12, 48 h, read-out: GI
[28] = test system: NCI-H23; assay: Cytotoxicity against Homo sapiens (human) NCI-H23 cells assessed as growth inhibition at 10 uM after 48 hr by coulter counter analysis; conditions: NCI-H23, 48 h, read-out: GI
[29] = test system: LOX IMVI; assay: Cytotoxicity against Homo sapiens (human) LOXIMVI cells assessed as growth inhibition at 10 uM after 48 hr by coulter counter analysis; conditions: read-out: GI
[30] = test system: HOP-62; assay: Cytotoxicity against Homo sapiens (human) HOP62 cells assessed as growth inhibition at 10 uM after 48 hr by coulter counter analysis; conditions: HOP-62, 48 h, read-out: GI
[31] = test system: SNB-19; assay: Cytotoxicity against Homo sapiens (human) SNB19 cells assessed as growth inhibition at 10 uM after 48 hr by coulter counter analysis; conditions: SNB-19, 48 h, read-out: GI
[32] = Cytotoxicity against Homo sapiens (human) NCI-ADR-RES cells assessed as growth inhibition at 10 uM after 48 hr by coulter counter analysis; conditions: read-out: GI
[33] = test system: COLO 205; assay: Cytotoxicity against Homo sapiens (human) COLO205 cells assessed as growth inhibition at 10 uM after 48 hr by coulter counter analysis; conditions: COLO 205, 48 h, read-out: GI
[34] = test system: EKVX; assay: Cytotoxicity against Homo sapiens (human) EKVX cells assessed as growth inhibition at 10 uM after 48 hr by coulter counter analysis; conditions: read-out: GI

Row | SMILES | inhibition of growth at 10 µM [1] [%] | inhibition of growth at 10 µM [2] [%] | inhibition of growth at 10 µM [3] [%] | inhibition of growth at 10 µM [4] [%] | inhibition of growth at 10 µM [5] [%] | inhibition of growth at 10 µM [6] [%] | inhibition of growth at 10 µM [7] [%] | inhibition of growth at 10 µM [8] [%] | inhibition of growth at 10 µM [9] [%] | inhibition of growth at 10 µM [10] [%] | inhibition of growth at 10 µM [11] [%] | inhibition of growth at 10 µM [12] [%] | inhibition of growth at 10 µM [13] [%] | inhibition of growth at 10 µM [14] [%] | inhibition of growth at 10 µM [15] [%] | inhibition of growth at 10 µM [16] [%] | inhibition of growth at 10 µM [17] [%] | inhibition of growth at 10 µM [18] [%] | inhibition of growth at 10 µM [19] [%] | inhibition of growth at 10 µM [20] [%] | further results
1 | O=c1c2ccccc2[nH]c(=S)n1CCc1ccccc1 | < 10 | < 10 | < 10 | 13 | 22 | < 10 | < 10 | 46 | < 10 | < 10 | < 10 | < 10 | < 10 | < 10 | < 10 | < 10 | < 10 | < 10 | 13 | < 10 | inhibition of growth at 10 µM [21]: 20%; inhibition of growth at 10 µM [22]: 33%; inhibition of growth at 10 µM [23]: < 10%; inhibition of growth at 10 µM [24]: < 10%; inhibition of growth at 10 µM [25]: 13%; inhibition of growth at 10 µM [26]: 18%; inhibition of growth at 10 µM [27]: < 10%; inhibition of growth at 10 µM [28]: < 10%; inhibition of growth at 10 µM [29]: < 10%; inhibition of growth at 10 µM [30]: 26%; inhibition of growth at 10 µM [31]: < 10%; inhibition of growth at 10 µM [32]: < 10%; inhibition of growth at 10 µM [33]: < 10%; inhibition of growth at 10 µM [34]: 18%
2 | O=C(CSc1nc2ccccc2c(=O)n1CCc1ccccc1)c1ccc(F)cc1 | < 10 | < 10 | < 10 | < 10 | < 10 | < 10 | < 10 | < 10 | 11 | < 10 | 13 | < 10 | 31 | < 10 | < 10 | 25 | < 10 | < 10 | < 10 | 21 | inhibition of growth at 10 µM [21]: < 10%; inhibition of growth at 10 µM [22]: 42%; inhibition of growth at 10 µM [23]: < 10%; inhibition of growth at 10 µM [24]: < 10%; inhibition of growth at 10 µM [25]: 13%; inhibition of growth at 10 µM [26]: 18%; inhibition of growth at 10 µM [27]: < 10%; inhibition of growth at 10 µM [28]: 20%; inhibition of growth at 10 µM [29]: < 10%; inhibition of growth at 10 µM [30]: < 10%; inhibition of growth at 10 µM [31]: < 10%; inhibition of growth at 10 µM [32]: < 10%; inhibition of growth at 10 µM [33]: < 10%; inhibition of growth at 10 µM [34]: 16%
3 | O=c1c2ccccc2nc(SCCN2CCOCC2)n1CCc1ccccc1 | < 10 | < 10 | < 10 | < 10 | < 10 | < 10 | < 10 | < 10 | < 10 | < 10 | < 10 | < 10 | < 10 | < 10 | < 10 | < 10 | < 10 | < 10 | < 10 | < 10 | inhibition of growth at 10 µM [21]: < 10%; inhibition of growth at 10 µM [22]: 14%; inhibition of growth at 10 µM [23]: < 10%; inhibition of growth at 10 µM [24]: < 10%; inhibition of growth at 10 µM [25]: 14%; inhibition of growth at 10 µM [26]: < 10%; inhibition of growth at 10 µM [27]: < 10%; inhibition of growth at 10 µM [28]: < 10%; inhibition of growth at 10 µM [29]: < 10%; inhibition of growth at 10 µM [30]: < 10%; inhibition of growth at 10 µM [31]: < 10%; inhibition of growth at 10 µM [32]: < 10%; inhibition of growth at 10 µM [33]: < 10%; inhibition of growth at 10 µM [34]: < 10%
4 | O=c1c2ccccc2nc(SCc2nnc(S)n2-c2ccccc2)n1CCc1ccccc1 | < 10 | < 10 | < 10 | 24 | < 10 | < 10 | < 10 | 41 | < 10 | < 10 | < 10 | < 10 | < 10 | < 10 | < 10 | < 10 | < 10 | < 10 | 12 | 17 | inhibition of growth at 10 µM [21]: 19%; inhibition of growth at 10 µM [22]: 30%; inhibition of growth at 10 µM [23]: < 10%; inhibition of growth at 10 µM [24]: < 10%; inhibition of growth at 10 µM [25]: 30%; inhibition of growth at 10 µM [26]: < 10%; inhibition of growth at 10 µM [27]: < 10%; inhibition of growth at 10 µM [28]: < 10%; inhibition of growth at 10 µM [29]: < 10%; inhibition of growth at 10 µM [30]: 24%; inhibition of growth at 10 µM [31]: < 10%; inhibition of growth at 10 µM [32]: < 10%; inhibition of growth at 10 µM [33]: < 10%; inhibition of growth at 10 µM [34]: 31%
5 | O=C1c2ccccc2C(=O)N1CCCSc1nc2ccccc2c(=O)n1CCc1ccccc1 | 13 | < 10 | < 10 | 43 | < 10 | < 10 | < 10 | 20 | 18 | < 10 | < 10 | < 10 | < 10 | < 10 | 12 | < 10 | < 10 | < 10 | < 10 | 34 | inhibition of growth at 10 µM [21]: 26%; inhibition of growth at 10 µM [22]: 19%; inhibition of growth at 10 µM [23]: < 10%; inhibition of growth at 10 µM [24]: < 10%; inhibition of growth at 10 µM [25]: 51%; inhibition of growth at 10 µM [26]: 21%; inhibition of growth at 10 µM [27]: < 10%; inhibition of growth at 10 µM [28]: < 10%; inhibition of growth at 10 µM [29]: < 10%; inhibition of growth at 10 µM [30]: < 10%; inhibition of growth at 10 µM [31]: < 10%; inhibition of growth at 10 µM [32]: < 10%; inhibition of growth at 10 µM [33]: < 10%; inhibition of growth at 10 µM [34]: 16%
